Experiment: Dissociation constant for binding affinity towards Concanavalin A determined by fluorescence anisotropy inhibition assay

| Compound | Kd [µM] |
| --- | --- |
| CO[C@H]1O[C@@H](CO[C@H]2O[C@@H](CO)[C@@H](O)[C@H](O)[C@H]2O)[C@@H](O)[C@H](O[C@H]2O[C@@H](CO)[C@@H](O)[C@H](O)[C@H]2O)[C@H]1O | 3 |
| CO[C@H]1O[C@@H](CO)[C@@H](O)[C@H](O[C@H]2S[C@@H](CO)[C@@H](O)[C@H](O)[C@H]2O)[C@H]1O | 1720 |
| CO[C@H]1O[C@@H](CO[C@H]2S[C@@H](CO)[C@@H](O)[C@H](O)[C@H]2O)[C@@H](O)[C@H](O)[C@H]1O | 1280 |
| CO[C@H]1O[C@@H](CO[C@H]2O[C@@H](CO)[C@@H](O)[C@H](O)[C@H]2O)[C@@H](O)[C@H](O)[C@H]1O | 150 |
| CO[C@H]1O[C@@H](CO)[C@@H](O)[C@H](O[C@H]2O[C@@H](CO)[C@@H](O)[C@H](O)[C@H]2O)[C@H]1O | 49 |

Next, values leading:

| Kd [µM] | Compound |
| --- | --- |
| 376 | CO[C@H]1O[C@@H](CO[C@H]2S[C@@H](CO)[C@@H](O)[C@H](O)[C@H]2O)[C@@H](O)[C@H](O[C@H]2S[C@@H](CO)[C@@H](O)[C@H](O)[C@H]2O)[C@H]1O |
| 18 | CO[C@H]1O[C@@H](CO[C@H]2S[C@@H](CO)[C@@H](O)[C@H](O)[C@H]2O)[C@@H](O)[C@H](O[C@H]2O[C@@H](CO)[C@@H](O)[C@H](O)[C@H]2O)[C@H]1O |
| 7 | CO[C@H]1O[C@@H](CO[C@H]2O[C@@H](CO)[C@@H](O)[C@H](O)[C@H]2O)[C@@H](O)[C@H](O[C@H]2S[C@@H](CO)[C@@H](O)[C@H](O)[C@H]2O)[C@H]1O |

Source: ChEMBL document CHEMBL1130814, “Synthesis of 5-thiomannose-containing oligomannoside mimics: binding abilities to concanavalin A” (Bioorg Med Chem Lett, 1998)
